The record followed here is patent US7192973B2, “Piperidine derivatives and their use as modulators of chemokine receptor activity (especially CCR5)” (AstraZeneca AB, priority 2001, dated 2007).

Broadly, the IC50 is the point on the concentration scale where inhibition reaches its midpoint.

The target of this assay is recombinant human CCR5 receptor (Homo sapiens, UniProt P51681). Put plainly: in vitro radioligand binding assay: inhibition of the binding of iodinated MIP-1α. The note with it: membranes from Chinese hamster ovary cells expressing CCR5; 0.1 nM iodinated MIP-1α; average if tested more than once.
Sequence of recombinant human CCR5 receptor (P51681 whole entry): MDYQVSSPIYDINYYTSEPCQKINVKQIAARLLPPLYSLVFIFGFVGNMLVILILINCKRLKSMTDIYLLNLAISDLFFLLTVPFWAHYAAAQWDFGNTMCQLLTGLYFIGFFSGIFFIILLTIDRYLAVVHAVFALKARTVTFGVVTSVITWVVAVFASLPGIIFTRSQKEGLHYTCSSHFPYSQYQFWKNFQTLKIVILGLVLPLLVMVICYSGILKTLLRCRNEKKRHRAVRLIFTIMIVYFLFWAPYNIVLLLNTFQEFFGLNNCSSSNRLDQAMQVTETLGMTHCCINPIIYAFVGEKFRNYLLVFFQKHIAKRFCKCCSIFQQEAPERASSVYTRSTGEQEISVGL

Protocol: The ability of compounds to inhibit the binding of MIP-1α was assessed by an in vitro radioligand binding assay. Membranes were prepared from Chinese hamster ovary cells which expressed the recombinant human CCR5 receptor. These membranes were incubated with 0.1 nM iodinated MIP-1α, scintillation proximity beads and various concentrations of the compounds of the invention in 96-well plates. The amount of iodinated MMP-1α bound to the receptor was determined by scintillation counting. Competition curves were obtained for compounds and the concentration of compound which displaced 50% of bound iodinated MIP-1α was calculated (IC50).

As for `CCN(C(=O)Cc1ccc(S(C)(=O)=O)cc1)C1CCN(CCC(c2ccccc2)N2CCN(C)CC2)CC1` (centres unmarked) [6 of Table I], the IC50 is 363 nM. `CCN(C(=O)Cc1ccc(S(C)(=O)=O)cc1)C1CCN(CCC(c2ccccc2)N2CCN(S(=O)(=O)CC(F)(F)F)CC2)CC1` (centres unmarked) [15 of Table II]: the IC50 was 5.62 nM.
